Active and inactive are the calls of the source. The rule behind the calls is not given here.
Tested on: Bombyx mori
Assay: Stimulation of transcription of acyl-CoA binding protein in pheromone gland of Silkmoth P50 at 0.2 mg after 18 hrs
Type: functional, organism-based

SMILES: N[C@H](Cc1ccc(O[C@@H]2O[C@H](CO)[C@H](O)[C@H](O)[C@H]2O)cc1)C(=O)O
- Activity: inactive

SMILES: N[C@@H](Cc1ccc(O[C@@H]2O[C@H](CO)[C@H](O)[C@H](O)[C@H]2O)cc1)C(=O)O
- Activity: Active

SMILES: N[C@@H](Cc1ccc(O[C@H]2O[C@@H](CO)[C@H](O)[C@@H](O)[C@@H]2O)cc1)C(=O)O
- Activity: inactive

SMILES: N[C@H](Cc1ccc(O[C@H]2O[C@@H](CO)[C@H](O)[C@@H](O)[C@@H]2O)cc1)C(=O)O
- Activity: inactive

SMILES: N[C@H](Cc1ccc(OC2O[C@H](CO)[C@@H](O)[C@H](O)[C@H]2O)cc1)C(=O)O (stereo not given in full)
- Activity: inactive

Source: ChEMBL document CHEMBL1144516, “Synthesis and biological activities of analogs of D-glucosyl-l-tyrosine, a humoral factor that stimulates transcription of the acyl-CoA binding protein in the pheromone gland of the Silkmoth, Bombyx mori” (Bioorg Med Chem, 2007)
